Assay results from paper PMC5862592, “CDK8/19 inhibition induces premature G1/S transition and ATR-dependent cell death in prostate cancer cells” (Oncotarget, 2018).
Read-outs that look alike come from different tables or passages of the source.

Columns and labels:
Test in all cases: biochemical
Parameters in all cases: KINOMEscan active site-directed competition binding assay (DiscoveRx), 456 kinases, per cent of control at 300 nM
Conditions in all cases: read-out: Percent of Control (%)
CAMK1 = CAMK1 (Homo sapiens, UniProt Q14012)
Summary of the method: (§1)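 Single-concentration selectivity screen: compound 300 nmol/L; 456-kinase panel; active-site-directed competition binding read-out.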

MET = MET (Homo sapiens, UniProt P08581)
Summary of the method: as §1

[1] = target: T1, ABL1(T315I)-nonphosphorylated (Homo sapiens, UniProt P00519, T315I)
T1 construct: nonphosphorylated
Summary of the method: as §1

FGFR2 = FGFR2 (Homo sapiens, UniProt P21802)
Summary of the method: as §1

KIT(V559D,V654A) = KIT(V559D,V654A) (Homo sapiens, UniProt P10721, V559D/V654A)
Summary of the method: as §1

MAP3K1 = MAP3K1 (Homo sapiens, UniProt Q13233)
Summary of the method: as §1

TLK2 = TLK2 (Homo sapiens, UniProt Q86UE8)
Summary of the method: as §1

NIK = target: T2, NIK (Homo sapiens, UniProt Q99558)
T2 construct: gene MAP3K14
Summary of the method: as §1

CDK5 = CDK5 (Homo sapiens, UniProt Q00535)
Summary of the method: as §1

CHEK2 = CHEK2 (Homo sapiens, UniProt O96017)
Summary of the method: as §1

AKT3 = AKT3 (Homo sapiens, UniProt Q9Y243)
Summary of the method: as §1

FLT3(ITD) = FLT3(ITD) (Homo sapiens, UniProt P36888, ITD)
Summary of the method: as §1

PIK3CA = PIK3CA (Homo sapiens, UniProt P42336)
Summary of the method: as §1

TRPM6 = TRPM6 (Homo sapiens, UniProt Q9BX84)
Summary of the method: as §1

AURKC = AURKC (Homo sapiens, UniProt Q9UQB9)
Summary of the method: as §1

DAPK2 = DAPK2 (Homo sapiens, UniProt Q9UIK4)
Summary of the method: as §1

WEE2 = WEE2 (Homo sapiens, UniProt P0C1S8)
Summary of the method: as §1

[2] = target: T3, RSK2(Kin.Dom.1-N-terminal) (Homo sapiens, UniProt P51812)
T3 construct: gene RPS6KA3; Kin.Dom.1-N-terminal
Summary of the method: as §1

CSNK1A1 = CSNK1A1 (Homo sapiens, UniProt P48729)
Summary of the method: as §1

EGFR(T790M) = EGFR(T790M) (Homo sapiens, UniProt P00533, T790M)
Summary of the method: as §1

p38-alpha = target: T4, p38-alpha (Homo sapiens, UniProt Q16539)
T4 construct: gene MAPK14
Summary of the method: as §1

ASK2 = target: T5, ASK2 (Homo sapiens, UniProt O95382)
T5 construct: gene MAP3K6
Summary of the method: as §1

CSNK1A1, sequence (P48729 whole entry): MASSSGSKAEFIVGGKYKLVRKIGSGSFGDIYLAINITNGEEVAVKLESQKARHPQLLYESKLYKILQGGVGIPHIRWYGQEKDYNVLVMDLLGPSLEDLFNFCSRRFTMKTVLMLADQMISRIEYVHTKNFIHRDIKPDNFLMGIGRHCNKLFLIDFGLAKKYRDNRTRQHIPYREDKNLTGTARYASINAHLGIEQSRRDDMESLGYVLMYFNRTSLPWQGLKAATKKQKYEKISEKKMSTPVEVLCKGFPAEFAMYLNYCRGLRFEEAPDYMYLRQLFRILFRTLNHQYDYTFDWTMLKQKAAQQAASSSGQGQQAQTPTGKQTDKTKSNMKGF
CAMK1, sequence (Q14012 whole entry): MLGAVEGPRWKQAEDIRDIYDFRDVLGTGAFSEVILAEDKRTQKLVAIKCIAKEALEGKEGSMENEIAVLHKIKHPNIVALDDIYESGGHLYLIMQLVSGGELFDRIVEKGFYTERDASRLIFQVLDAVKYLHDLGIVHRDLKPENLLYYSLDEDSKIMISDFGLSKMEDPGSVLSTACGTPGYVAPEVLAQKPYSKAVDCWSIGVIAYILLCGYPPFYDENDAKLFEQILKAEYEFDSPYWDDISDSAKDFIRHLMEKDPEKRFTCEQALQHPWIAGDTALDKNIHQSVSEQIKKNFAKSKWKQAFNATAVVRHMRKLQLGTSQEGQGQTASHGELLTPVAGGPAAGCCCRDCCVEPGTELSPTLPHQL
T4 sequence (Q16539 whole entry): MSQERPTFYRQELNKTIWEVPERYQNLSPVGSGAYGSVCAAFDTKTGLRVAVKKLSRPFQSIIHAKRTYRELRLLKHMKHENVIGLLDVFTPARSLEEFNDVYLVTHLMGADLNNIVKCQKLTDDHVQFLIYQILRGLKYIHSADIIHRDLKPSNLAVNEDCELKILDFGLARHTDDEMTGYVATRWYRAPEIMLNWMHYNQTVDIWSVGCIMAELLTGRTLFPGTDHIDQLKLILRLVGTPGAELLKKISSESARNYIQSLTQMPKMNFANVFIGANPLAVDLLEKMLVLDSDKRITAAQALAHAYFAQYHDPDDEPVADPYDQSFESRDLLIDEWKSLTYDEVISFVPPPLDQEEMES
CDK5, sequence (Q00535 whole entry): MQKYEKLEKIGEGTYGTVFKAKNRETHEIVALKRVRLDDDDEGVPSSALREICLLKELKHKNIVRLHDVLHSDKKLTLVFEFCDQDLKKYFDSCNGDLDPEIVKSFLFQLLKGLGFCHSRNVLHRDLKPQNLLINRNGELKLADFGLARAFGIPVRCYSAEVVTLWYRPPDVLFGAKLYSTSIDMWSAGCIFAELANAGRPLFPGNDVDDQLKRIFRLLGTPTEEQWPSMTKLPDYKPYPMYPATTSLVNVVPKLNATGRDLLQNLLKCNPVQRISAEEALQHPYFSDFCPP
CHEK2, sequence (O96017 whole entry): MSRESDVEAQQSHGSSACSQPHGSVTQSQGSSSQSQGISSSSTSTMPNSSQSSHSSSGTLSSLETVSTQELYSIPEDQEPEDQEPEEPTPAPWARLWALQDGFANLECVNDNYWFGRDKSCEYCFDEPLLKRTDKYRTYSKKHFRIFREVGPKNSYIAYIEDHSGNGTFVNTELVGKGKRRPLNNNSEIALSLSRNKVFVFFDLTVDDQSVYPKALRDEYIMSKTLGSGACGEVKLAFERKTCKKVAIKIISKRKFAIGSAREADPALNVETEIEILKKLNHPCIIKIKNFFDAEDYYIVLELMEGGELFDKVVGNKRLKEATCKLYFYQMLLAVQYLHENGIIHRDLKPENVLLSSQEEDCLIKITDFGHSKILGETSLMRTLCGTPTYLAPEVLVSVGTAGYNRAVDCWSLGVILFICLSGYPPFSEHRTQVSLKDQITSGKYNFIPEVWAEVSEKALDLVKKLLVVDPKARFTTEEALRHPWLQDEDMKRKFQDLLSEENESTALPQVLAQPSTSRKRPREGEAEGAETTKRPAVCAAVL
EGFR(T790M), sequence (P00533 whole entry T790M): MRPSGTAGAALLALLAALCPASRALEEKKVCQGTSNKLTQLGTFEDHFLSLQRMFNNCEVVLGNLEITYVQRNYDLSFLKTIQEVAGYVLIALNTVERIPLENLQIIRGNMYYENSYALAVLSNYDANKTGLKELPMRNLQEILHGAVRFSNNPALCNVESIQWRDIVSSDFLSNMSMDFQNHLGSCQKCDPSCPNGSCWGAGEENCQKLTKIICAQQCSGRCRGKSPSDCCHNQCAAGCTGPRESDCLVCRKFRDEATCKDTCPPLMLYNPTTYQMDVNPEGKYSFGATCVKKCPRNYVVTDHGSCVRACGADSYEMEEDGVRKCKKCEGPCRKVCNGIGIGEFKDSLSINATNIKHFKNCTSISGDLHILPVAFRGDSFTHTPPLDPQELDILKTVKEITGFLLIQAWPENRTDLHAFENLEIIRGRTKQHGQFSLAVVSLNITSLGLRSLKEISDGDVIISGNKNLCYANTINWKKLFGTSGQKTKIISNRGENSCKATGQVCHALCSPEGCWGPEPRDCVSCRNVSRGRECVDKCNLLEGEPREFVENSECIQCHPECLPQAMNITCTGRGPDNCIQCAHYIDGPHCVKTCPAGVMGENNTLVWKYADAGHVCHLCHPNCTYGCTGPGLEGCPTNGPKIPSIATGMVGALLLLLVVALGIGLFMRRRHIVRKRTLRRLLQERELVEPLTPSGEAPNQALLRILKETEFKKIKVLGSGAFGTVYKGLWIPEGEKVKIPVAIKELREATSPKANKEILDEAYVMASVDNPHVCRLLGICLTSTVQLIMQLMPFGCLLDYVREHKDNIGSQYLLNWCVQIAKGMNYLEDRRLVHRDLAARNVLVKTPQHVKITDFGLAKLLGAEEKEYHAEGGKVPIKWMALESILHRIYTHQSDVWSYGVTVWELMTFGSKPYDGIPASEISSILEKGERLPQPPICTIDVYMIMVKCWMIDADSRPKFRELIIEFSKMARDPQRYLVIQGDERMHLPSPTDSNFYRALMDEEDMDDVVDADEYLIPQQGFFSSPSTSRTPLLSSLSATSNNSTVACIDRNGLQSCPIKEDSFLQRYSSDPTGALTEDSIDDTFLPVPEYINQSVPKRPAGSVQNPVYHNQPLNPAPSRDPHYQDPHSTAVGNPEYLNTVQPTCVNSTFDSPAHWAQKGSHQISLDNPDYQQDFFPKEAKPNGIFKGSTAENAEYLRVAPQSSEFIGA
T5 sequence (O95382 whole entry): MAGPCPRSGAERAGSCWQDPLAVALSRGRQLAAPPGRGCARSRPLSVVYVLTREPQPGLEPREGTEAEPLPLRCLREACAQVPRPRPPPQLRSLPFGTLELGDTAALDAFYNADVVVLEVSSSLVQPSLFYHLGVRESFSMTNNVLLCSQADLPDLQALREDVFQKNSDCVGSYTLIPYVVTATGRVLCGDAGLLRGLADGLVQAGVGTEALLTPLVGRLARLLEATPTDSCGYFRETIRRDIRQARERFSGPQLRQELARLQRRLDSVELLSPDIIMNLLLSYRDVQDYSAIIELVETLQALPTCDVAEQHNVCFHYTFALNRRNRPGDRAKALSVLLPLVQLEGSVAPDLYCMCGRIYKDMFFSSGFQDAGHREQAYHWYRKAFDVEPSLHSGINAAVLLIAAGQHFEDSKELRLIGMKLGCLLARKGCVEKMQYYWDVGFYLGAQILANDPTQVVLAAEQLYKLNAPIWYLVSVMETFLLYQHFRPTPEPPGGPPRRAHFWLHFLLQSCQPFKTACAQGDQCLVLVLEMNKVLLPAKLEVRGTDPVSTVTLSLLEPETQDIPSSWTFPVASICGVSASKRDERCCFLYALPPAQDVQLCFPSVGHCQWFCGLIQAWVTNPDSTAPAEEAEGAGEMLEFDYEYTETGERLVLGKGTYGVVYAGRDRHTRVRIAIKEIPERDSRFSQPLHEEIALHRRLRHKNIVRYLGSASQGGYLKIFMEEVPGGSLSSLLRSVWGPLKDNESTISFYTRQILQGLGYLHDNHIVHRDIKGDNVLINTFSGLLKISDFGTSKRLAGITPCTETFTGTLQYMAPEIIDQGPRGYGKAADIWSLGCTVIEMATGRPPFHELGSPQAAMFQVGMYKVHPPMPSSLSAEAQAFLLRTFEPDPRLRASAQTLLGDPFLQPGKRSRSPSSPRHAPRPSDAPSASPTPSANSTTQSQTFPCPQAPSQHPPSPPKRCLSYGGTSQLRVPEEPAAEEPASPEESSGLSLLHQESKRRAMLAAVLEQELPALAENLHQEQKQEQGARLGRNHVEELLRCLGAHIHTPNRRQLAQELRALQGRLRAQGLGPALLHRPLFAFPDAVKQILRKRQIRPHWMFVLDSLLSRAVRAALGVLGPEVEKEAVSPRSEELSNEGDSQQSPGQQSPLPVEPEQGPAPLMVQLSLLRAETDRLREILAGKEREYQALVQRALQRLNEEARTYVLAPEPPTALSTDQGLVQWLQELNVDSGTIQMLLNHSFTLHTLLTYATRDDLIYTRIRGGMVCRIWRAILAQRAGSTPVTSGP
AKT3, sequence (Q9Y243 whole entry): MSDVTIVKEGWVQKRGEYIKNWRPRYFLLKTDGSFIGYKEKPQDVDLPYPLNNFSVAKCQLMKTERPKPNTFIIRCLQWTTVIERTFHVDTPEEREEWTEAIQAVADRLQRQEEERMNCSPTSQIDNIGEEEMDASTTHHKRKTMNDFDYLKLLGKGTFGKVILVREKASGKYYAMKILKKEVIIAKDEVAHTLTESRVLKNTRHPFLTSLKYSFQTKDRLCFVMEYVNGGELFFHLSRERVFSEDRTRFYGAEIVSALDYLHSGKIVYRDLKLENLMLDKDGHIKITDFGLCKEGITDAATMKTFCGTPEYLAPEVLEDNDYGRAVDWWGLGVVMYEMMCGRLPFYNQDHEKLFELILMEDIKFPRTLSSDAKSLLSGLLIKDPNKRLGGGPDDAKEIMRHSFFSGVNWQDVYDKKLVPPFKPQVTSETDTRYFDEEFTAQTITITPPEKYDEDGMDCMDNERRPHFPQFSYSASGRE

Compound `Cc1ncccc1Oc1sc(C(N)=O)c2c1-c1c(cnn1C)CC2` [T-474, 1-methyl-8-((2-methylpyridin-3-yl)oxy)-4,5-dihydro-1H-thieno[3,4-g]indazole-6-carboxamide] has a remaining binding at 0.3 µM (CAMK1) of 66%, a remaining binding at 0.3 µM (MET) of 100% and a remaining binding at 0.3 µM [1] of 100%. For the same compound, the remaining binding at 0.3 µM (FGFR2) was 100%, the remaining binding at 0.3 µM (KIT(V559D,V654A)) was 100% and the remaining binding at 0.3 µM (MAP3K1) was 84%. It also gave a remaining binding at 0.3 µM (TLK2) of 100%, a remaining binding at 0.3 µM (NIK) of 100% and a remaining binding at 0.3 µM (CDK5) of 94%. It also gave a remaining binding at 0.3 µM (CHEK2) of 100%, a remaining binding at 0.3 µM (AKT3) of 97% and a remaining binding at 0.3 µM (FLT3(ITD)) of 100%. It also gave a remaining binding at 0.3 µM (PIK3CA) of 92%, a remaining binding at 0.3 µM (TRPM6) of 95% and a remaining binding at 0.3 µM (AURKC) of 100%. It also gave a remaining binding at 0.3 µM (DAPK2) of 100%, a remaining binding at 0.3 µM (WEE2) of 100% and a remaining binding at 0.3 µM [2] of 100%. It also gave a remaining binding at 0.3 µM (CSNK1A1) of 98%, a remaining binding at 0.3 µM (EGFR(T790M)) of 100% and a remaining binding at 0.3 µM (p38-alpha) of 99%. It also gave a remaining binding at 0.3 µM (ASK2) of 100%.

`O=C(/C=C/c1cnccc1-c1ccc(F)cc1)Nc1ccc(CCc2nnco2)cc1` [T-418, (2E)-3-(4-(4-fluorophenyl)pyridin-3-yl)-N-(4-(2-(1,3,4-oxadiazol-2-yl)ethyl)phenyl)acrylamide] gave a remaining binding at 0.3 µM (CAMK1; sheet T-418) of 70%, a remaining binding at 0.3 µM (MET; sheet T-418) of 92% and a remaining binding at 0.3 µM ([1]; sheet T-418) of 100%. For the same compound, the remaining binding at 0.3 µM (FGFR2; sheet T-418) was 90%, the remaining binding at 0.3 µM (KIT(V559D,V654A); sheet T-418) was 96% and the remaining binding at 0.3 µM (MAP3K1; sheet T-418) was 100%. For the same compound, the remaining binding at 0.3 µM (TLK2; sheet T-418) was 100%, the remaining binding at 0.3 µM (NIK; sheet T-418) was 100% and the remaining binding at 0.3 µM (CDK5; sheet T-418) was 80%. For the same compound, the remaining binding at 0.3 µM (CHEK2; sheet T-418) was 89%, the remaining binding at 0.3 µM (AKT3; sheet T-418) was 100% and the remaining binding at 0.3 µM (FLT3(ITD); sheet T-418) was 100%. The remaining binding at 0.3 µM (PIK3CA; sheet T-418) was 84%, the remaining binding at 0.3 µM (TRPM6; sheet T-418) was 90% and the remaining binding at 0.3 µM (AURKC; sheet T-418) was 100%. It also gave a remaining binding at 0.3 µM (DAPK2; sheet T-418) of 87%, a remaining binding at 0.3 µM (WEE2; sheet T-418) of 100% and a remaining binding at 0.3 µM ([2]; sheet T-418) of 100%. For the same compound, the remaining binding at 0.3 µM (CSNK1A1; sheet T-418) was 100%, the remaining binding at 0.3 µM (EGFR(T790M); sheet T-418) was 95% and the remaining binding at 0.3 µM (p38-alpha; sheet T-418) was 100%. For the same compound, the remaining binding at 0.3 µM (ASK2; sheet T-418) was 94%.
